Laboratory results: PubChem BioAssay (NCI)
Where “and” joins values, the source holds several entries; their conditions need not be identical. Equal entries are not always repeated.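 All cell lines were grown in 96-well plates and treated with compound for 48 hours. GI50: concentration for 50% inhibition of growth. TGI is the concentration that stops growth completely.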

Key:
Experiment in all cases: inhibition of tumour cell growth, NCI panel, 48 h
EKVX NSCLC = system: EKVX NSCLC
HCC-2998 colon = system: HCC-2998 colon
MDA-MB-435 = system: MDA-MB-435
NCI-H460 lung = system: NCI-H460 lung
OVCAR-3 ovarian = system: OVCAR-3 ovarian
OVCAR-5 ovarian = system: OVCAR-5 ovarian
RPMI-8226 leukemia = system: RPMI-8226 leukemia
SK-MEL-5 melanoma = system: SK-MEL-5 melanoma
SNB-19 CNS = system: SNB-19 CNS
UACC-257 melanoma = system: UACC-257 melanoma

SMILES	GI50 (EKVX NSCLC)	TGI (EKVX NSCLC)	GI50 (HCC-2998 colon)	TGI (HCC-2998 colon)	GI50 (MDA-MB-435)	TGI (MDA-MB-435)	GI50 (NCI-H460 lung)	TGI (NCI-H460 lung)	GI50 (OVCAR-3 ovarian)	TGI (OVCAR-3 ovarian)	GI50 (OVCAR-5 ovarian)	TGI (OVCAR-5 ovarian)	GI50 (RPMI-8226 leukemia)	TGI (RPMI-8226 leukemia)	GI50 (SK-MEL-5 melanoma)	TGI (SK-MEL-5 melanoma)	GI50 (SNB-19 CNS)	TGI (SNB-19 CNS)	GI50 (UACC-257 melanoma)	TGI (UACC-257 melanoma)
CN1C(=O)N(C)C2C1NN=c1s/c(=C\c3ccc(C(F)(F)F)cc3)c(=O)n12 (stereo unspecified)	4.17 µM	> 100 µM	2.68 µM	> 100 µM	0.312 µM	1.34 µM	0.715 µM	> 100 µM	0.493 µM	17.7 µM	3.2 µM	> 100 µM	1.65 µM	> 100 µM	0.594 µM	13.9 µM	2.62 µM	> 100 µM	14.5 µM	> 100 µM
COc1cc2c(c(OC)c1OC)-c1ccc(SC)c(=O)cc1C(NC(=O)c1ccccc1)CC2 (stereo unspecified)	–	> 100 µM	–	0.144 µM	–	< 0.01 µM	–	1.62 µM	–	< 0.01 µM	–	58.7 µM	–	52.5 µM	–	< 0.01 µM	–	29.1 µM	–	18.4 µM
COc1ccc2c(c1)N(CCO)C1=C(C(=O)OC1)C2c1cccc(F)c1 (stereo unspecified)	1.34 µM	> 50 µM	1.07 µM	> 50 µM	0.112 µM	0.348 µM	0.227 µM	> 50 µM	0.188 µM	–	2.07 µM	> 50 µM	0.629 µM	> 50 µM	0.456 µM	> 11.4 µM	0.288 µM	> 50 µM	> 50 µM	> 50 µM
COc1ccc2cc1Oc1ccc(cc1)C[C@H]1c3c(cc4c(c3Oc3cc5c(cc3OC)CCN(C)[C@@H]5C2)OCO4)CCN1C	8.47 µM	18 µM	1.65 µM	8.26 µM	1.03 µM	6.12 µM	2.82 µM	9.03 µM	5.38 µM	15 µM	6.65 µM	13.5 µM	1.56 µM	8.7 µM	0.763 µM	1.43 µM	3.53 µM	14.6 µM	0.727 µM	1.46 µM
Cc1ccc(/C=N\NC(=O)c2[nH]c3ccc(F)cc3c2-c2ccccc2)cc1	0.0691 µM	> 100 µM	0.0321 µM	16.5 µM	0.0217 µM	0.0495 µM	0.0345 µM	> 37.9 µM	0.0261 µM	0.0782 µM	0.0591 µM	> 100 µM	0.0395 µM	> 37.2 µM	0.0224 µM	0.0559 µM	0.0493 µM	> 100 µM	0.493 µM	> 100 µM
C=CC(=O)Nc1cccc(Oc2nc(Nc3ccc(N4CCN(C)CC4)cc3)nc3ccsc23)c1	1.55 µM and 2.39 µM	> 10 µM and 16.7 µM	14.8 µM	> 10 µM and 32.3 µM	1.71 µM and 1.93 µM	3.69 µM and 4.12 µM	3.26 µM and 3.19 µM	> 10 µM and 12.6 µM	2.11 µM and 1.88 µM	9.29 µM and 4.79 µM	3.61 µM and 8.09 µM	> 10 µM and 25.2 µM	2.01 µM and 1.96 µM	4.91 µM and 4.62 µM	1.64 µM and 1.75 µM	3.05 µM and 3.16 µM	3.51 µM and 3.35 µM	> 10 µM and 14.1 µM	2.6 µM and 1.98 µM	8.59 µM and 3.83 µM
O=S(=O)(c1ccc(Cl)cc1)C(Cl)(Cl)Cl	4.68 µM	> 21.4 µM	1.42 µM	5.87 µM	0.908 µM	4.7 µM	3.79 µM	17 µM	0.886 µM	4.45 µM	12.7 µM	69.6 µM	3.35 µM	> 52.9 µM	3.02 µM	12.1 µM	15.2 µM	> 78.1 µM	2.1 µM	11.8 µM
NC(=O)c1csc(C2OC(CO)C(O)C2O)n1 (stereo unspecified)	–	5940 µM	75.8 µM	> 10000 µM	43.7 µM	> 4870 µM	–	> 10000 µM	22.2 µM	7030 µM	–	> 9720 µM	> 20.1 µM	8150 µM	> 31.6 µM	> 31.6 µM and 8280 µM	65.7 µM	7290 µM	–	> 10000 µM
CN(C)CCCn1c(=O)c2ccccc2c2ccccc21	13.6 µM	44.9 µM	16.4 µM	34.8 µM	11.8 µM	26.6 µM	7.55 µM	25.8 µM	20.4 µM	52.4 µM	22.6 µM	69.7 µM	26.9 µM	77.7 µM	12.3 µM	24.9 µM	23.3 µM	> 100 µM	12.6 µM	26.6 µM
O=c1[nH]c(=O)n(C2CC(O)C(COP(=O)(OCc3ccc([N+](=O)[O-])o3)N(CCCCCl)CC(O)CO)O2)cc1F (stereo unspecified)	> 28.2 µM	> 100 µM	0.401 µM	> 100 µM	1.26 µM	> 100 µM	< 0.0474 µM	> 100 µM	0.39 µM	–	> 100 µM	> 100 µM	< 0.01 µM	> 49.8 µM	0.386 µM	4.49 µM	> 20.3 µM	> 100 µM	0.0213 µM	0.852 µM
CO/N=C(\COc1ccc2c(c1)[nH]c1ccccc12)c1ccc(F)cc1	65.9 µM	> 100 µM	> 100 µM	> 100 µM	> 100 µM	> 100 µM	> 100 µM	> 100 µM	10.6 µM	> 100 µM	> 100 µM	> 100 µM	43.9 µM	> 100 µM	> 100 µM	> 100 µM	30 µM	> 100 µM	48.7 µM	> 100 µM
O=C1OC(=O)C(=C\c2ccc3c(c2)OCO3)/C1=C/c1ccc2c(c1)OCO2	–	> 100 µM	–	> 100 µM	–	> 100 µM	–	> 100 µM	–	> 100 µM	–	> 100 µM	–	97.2 µM	–	> 100 µM	–	> 100 µM	–	> 100 µM
C[C@@H]1CN(Cc2ccc(F)cc2)[C@@H](C)CN1C(=O)c1cc2c(C(=O)C(=O)N(C)C)cn(C)c2cc1Cl	20.7 µM	89.8 µM	17.3 µM	34.4 µM	15 µM	35.1 µM	16.8 µM	37.4 µM	18.7 µM	39.2 µM	21.8 µM	60.4 µM	16.7 µM	51.9 µM	13.1 µM	26 µM	17.4 µM	64.1 µM	15.7 µM	34.7 µM
O=C1OCC2=C1C(c1ccccc1)c1cc3c(cc1N2)OCO3 (stereo unspecified)	2.29 µM	> 100 µM	0.0333 µM	> 38.7 µM	–	0.026 µM	0.0354 µM	–	0.0202 µM	0.0486 µM	0.0829 µM	> 100 µM	0.0571 µM	–	0.0336 µM	0.234 µM	0.0568 µM	> 100 µM	4.58 µM	> 100 µM
